Measurements reported in patent US6576619B2 (CV Therapeutics, Inc., priority 1999, dated 2003).

Key:
Rat Heart Rate [1] = assay: Effect on rat heart rate (telemetry) after administration of pro-drug; format: in vivo, Sprague Dawley rats; design: key to Effect on Heart Rate: +++: Heart Rate decreased by 100-150 BPM; ++: Heart Rate decreased by 50-100 BPM; +: Heart rate decreased by 50 BPM; =/−: No reproducible effect on Heart Rate.; −: No effect on Heart Rate; conditions: for Effect on Heart Rate: rat, oral gavage, 500 μGram dose, average of 3-6 rats
Description: Adult male and female Sprague Dawley rats were implanted with transducer/emitter modules of the Data Science Telemetry system (St. Paul, Minn.) to allow continuous monitoring of heart rate (HR). At the start of the experiment, basal HR was determine for 1 hour prior to gavage. A 500 μg dose of compounds prepared according to Examples 1-4 was administered to by oral gavage. The compounds were each prepared as stock solutions in DMSO and diluted at least 1:1000 in water for gavage. Following administration, HR was determined every five minutes. In these experiments, 3-6 rats were used to test each compounds. An average of the HR results are reported in Table 1, below and in FIGS. 1A, 2A, 3A and 4A.
Compound 1, identified above is an A1 Agonist. […] Thus, this in vivo assay is a measure of effect on heart rate following the oral administration of a pro-drug of a potent adenosine A1 agonist. The plasma concentrations of compound 1 was determined over time by cannulating the jugular of a separate specimen for subsequent blood collection. After a 24 hour recovery period, a pre-dose baseline HR as determined followed by gavage or IP injection of a compound being tested. Blood samples were taken and the concentration of compound 1 in the plasma was determined using LC/MS/MS methodologies.

Rat Heart Rate [2] = assay: as above; format: in vivo, Sprague Dawley rats; conditions: for decrease in heart rate: oral gavage, dose of 0.5 mg/kg
adenosine A1 = target: T1, adenosine A1 (Homo sapiens, UniProt P30542); conditions: from Snowdy et al. abstract and WO 98/08855; cited from earlier work
T1 sequence (P30542 1-326): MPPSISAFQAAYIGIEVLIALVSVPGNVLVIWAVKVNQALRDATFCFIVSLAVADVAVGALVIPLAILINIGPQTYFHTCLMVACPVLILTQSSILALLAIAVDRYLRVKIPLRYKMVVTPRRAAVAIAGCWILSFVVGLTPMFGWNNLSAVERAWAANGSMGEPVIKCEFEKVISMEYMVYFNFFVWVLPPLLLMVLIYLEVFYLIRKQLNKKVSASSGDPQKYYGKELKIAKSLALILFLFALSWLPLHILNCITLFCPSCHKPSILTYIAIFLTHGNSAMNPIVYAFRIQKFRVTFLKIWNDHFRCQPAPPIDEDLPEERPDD

In the case of `CC(C)C(=O)O[C@@H]1[C@@H](COC(=O)C2CCCC2)OC(n2cnc3c(N[C@@H]4CCOC4)ncnc32)[C@@H]1OC(=O)C(C)C` (stereo partly drawn) [Compound 17, 2-{6-[((3R)oxolan-3-yl)amino]purin-9-yl}(3R, 4R, 5R)-5-(cyclopentylcarbonyloxymethyl)-4-(2-methylpropanoyloxy)oxolan-3-yl 2-methylpropanoate], the “Effect on Heart Rate” value (Rat Heart Rate [1]) was “−”.

With `CC(=O)O[C@@H]1[C@H](OC(C)=O)[C@@H](COC(=O)[C@@H](N)C(C)C)O[C@H]1n1cnc2c(N[C@@H]3CCOC3)ncnc21` [Compound 21, (5-{6-[((3R)oxolan-3-yl)amino]purin-9-yl}(2R, 3R, 4R)-3,4-diacetyloxyoxolan-2-yl)methyl (2S)-2-amino-3-methylbutanoate] the “Effect on Heart Rate” value (Rat Heart Rate [1]) was “+ (Heart rate decreased by 50 BPM)”.

For `CC(=O)O[C@@H]1[C@@H](COC(=O)C2CCCC2)OC(n2cnc3c(N[C@@H]4CCOC4)ncnc32)[C@@H]1OC(C)=O` (stereo partly drawn) [Compound 18, 2-{6-[((3R)oxolan-3-yl)amino]purin-9-yl}(3R, 4R, 5R)-4-acetyloxy-5-(cyclopentylcarbonyloxymethyl)oxolan-3-yl acetate], the “Effect on Heart Rate” value (Rat Heart Rate [1]) was “+ (Heart rate decreased by 50 BPM)”.

For `O=C(OC[C@H]1OC(n2cnc3c(N[C@@H]4CCOC4)ncnc32)[C@H](OC(=O)c2cccnc2)[C@@H]1OC(=O)c1cccnc1)c1cccnc1` (stereo partly drawn) [Compound 14, (5-{6-[((3R)oxolan-3-yl)amino]purin-9-yl}(2R, 3R, 4R)-3,4-di(3-pyridylcarbonyloxy)oxolan-2-yl)methyl pyridine-3-carboxylate], the “Effect on Heart Rate” value (Rat Heart Rate [1]) was “+ (Heart rate decreased by 50 BPM)”.

With `NCC(=O)OC[C@H]1OC(n2cnc3c(N[C@@H]4CCOC4)ncnc32)[C@H](OC(=O)CN)[C@@H]1OC(=O)CN` (stereo partly drawn) [Compound 12, 2-{6[((3R)oxolan-3-yl)amino]purin-9-yl}(3R, 4R, 5R)-4-(2-aminoacetyloxy)-5-[(2-aminoacetyloxy)methyl]oxolan-3-yl 2-aminoacetate] the “Effect on Heart Rate” value (Rat Heart Rate [1]) was “−”.

In the case of `CC(C)C(=O)OC[C@H]1OC(n2cnc3c(NC4CCOC4)ncnc32)[C@H](OC(=O)C2CCCC2)[C@@H]1OC(=O)C1CCCC1` (stereo partly shown) [Compound 20], the “Effect on Heart Rate” value (Rat Heart Rate [1]) was “−”.

With `CC(C)[C@H](N)C(=O)OC[C@H]1O[C@@H](n2cnc3c(N[C@@H]4CCOC4)ncnc32)[C@H](O)[C@@H]1O` [Compound 28, (5-{6-[((3R)oxolan-3-yl)amino]purin-9-yl}(2R, 3S, 4R)-3,4-dihydroxyoxolan-2-yl)methyl (2S)-2-amino-3-methylbutanoate] the “Effect on Heart Rate” value (Rat Heart Rate [1]) was “−”.

In the case of `O=C(OC[C@H]1OC(n2cnc3c(N[C@@H]4CCOC4)ncnc32)[C@H](OC(=O)C2CCCC2)[C@@H]1OC(=O)C1CCCC1)C1CCCC1` (stereo partly drawn) [Compound 8, 2-{6-[((3R)oxolan-3-yl)amino]purin-9-yl}(3R, 4R, 5R)-4-cyclopentylcarbonyloxy-5-(cyclopentylcarbonyloxymethyl)oxolan-3-yl cyclopentanecarboxylate], the “Effect on Heart Rate” value (Rat Heart Rate [1]) was “+++ (Heart Rate decreased by 100-150 BPM)” and the “decrease in heart rate” value (Rat Heart Rate [2]; rats) was 100-150 beats per minute.

For `O=C(COCc1ccccc1)OC[C@H]1OC(n2cnc3c(N[C@@H]4CCOC4)ncnc32)[C@H](OC(=O)COCc2ccccc2)[C@@H]1OC(=O)COCc1ccccc1` (stereo partly drawn) [Compound 10, (5-{6-[((3R)oxolan-3-yl)amino]purin-9-yl}(2R, 3R, 4R)-3,4-bis[2-(phenylmethoxy)acetyloxy]oxolan-2-yl)methyl 2-(phenylmethoxy)acetate], the “Effect on Heart Rate” value (Rat Heart Rate [1]) was “+ (Heart rate decreased by 50 BPM)”.

For `CC(=O)OC[C@H]1OC(n2cnc3c(N[C@@H]4CCOC4)ncnc32)[C@H](OC(C)=O)[C@@H]1OC(C)=O` (stereo partly drawn) [Compound 2, (5-{6-[((3R)oxolan-3-yl)amino]purin-9-yl}(2R, 3R, 4R)-3,4-diacetyloxyoxolan-2-yl)methyl acetate], the “Effect on Heart Rate” value (Rat Heart Rate [1]) was “+++ (Heart Rate decreased by 100-150 BPM)”, the “reversibility of effect on heart rate by theophylline” value (Rat Heart Rate [2]; rats, oral gavage 0.5 mg/kg, then theophylline 7.5 mg/kg) was “reversible” and the “decrease in heart rate” value (Rat Heart Rate [2]; rats) was 100-150 beats per minute.

For `CC(=O)O[C@@H]1[C@@H](CO)OC(n2cnc3c(N[C@@H]4CCOC4)ncnc32)[C@@H]1OC(C)=O` (stereo partly drawn) [Compound 31, 2-{6-[((3R)oxolan-3-yl)amino]purin-9-yl}(3R, 4R, 5R)-4-acetyloxy-5-(hydroxymethyl)oxolan-3-yl acetate], the “activity upon oral dosing in rats” value (Rat Heart Rate [1]; rats, oral dosing, compared with the triple pro-drugs (Table 1)) was “lower activity”.

With `CCOCC(=O)OC[C@H]1OC(n2cnc3c(N[C@@H]4CCOC4)ncnc32)[C@H](OC(=O)COCC)[C@@H]1OC(=O)COCC` (stereo partly drawn) [Compound 9, 2-{6-[((3R)oxolan-3-yl)amino]purin-9-yl}(3R, 4R, 5R)-4-(2-ethoxyacetyloxy)-5-[(2-ethoxyacetyloxy)methyl]oxolan-3-yl 2-ethoxyacetate] the “Effect on Heart Rate” value (Rat Heart Rate [1]) was “++ (Heart Rate decreased by 50-100 BPM)”.

In the case of `CC(=O)O[C@@H]1[C@@H](COC(=O)C(C)C)OC(n2cnc3c(N[C@@H]4CCOC4)ncnc32)[C@@H]1OC(C)=O` (stereo partly drawn) [Compound 19, (5-{6-[((3R)oxolan-3-yl)amino]purin-9-yl}(2R, 3R, 4R)-3,4-diacetyloxyoxolan-2-yl)methyl 2-methylpropanoate], the “Effect on Heart Rate” value (Rat Heart Rate [1]) was “+++ (Heart Rate decreased by 100-150 BPM)” and the “decrease in heart rate” value (Rat Heart Rate [2]; rats) was 100-150 beats per minute.

For `CC(=O)OC[C@H]1OC(n2cnc3c(NC4CCOC4)ncnc32)[C@H](OC(=O)C2CCCC2)[C@@H]1OC(=O)C1CCCC1` (stereo partly shown) [Compound 16], the “Effect on Heart Rate” value (Rat Heart Rate [1]) was “+ (Heart rate decreased by 50 BPM)”.

With `O=C(Cc1ccccc1)OC[C@H]1OC(n2cnc3c(N[C@@H]4CCOC4)ncnc32)[C@H](OC(=O)Cc2ccccc2)[C@@H]1OC(=O)Cc1ccccc1` (stereo partly drawn) [Compound 13, (5-{6-[((3R)oxolan-3-yl)amino]purin-9-yl}(2R, 3R, 4R)-3,4-bis(2-phenylethanoyloxy)oxolan-2-yl)methyl 2-phenylethananoate] the “Effect on Heart Rate” value (Rat Heart Rate [1]) was “−”.

For `CCC(=O)OC[C@H]1OC(n2cnc3c(N[C@@H]4CCOC4)ncnc32)[C@H](OC(=O)CC)[C@@H]1OC(=O)CC` (stereo partly drawn) [Compound 7, (2-{6-[((3R)oxolan-3-yl)amino]purin-9-yl}(3R, 4R, 5R)-4-propanoyloxy-5-(propanoyloxymethyl)oxolan-3-yl propanoate], the “Effect on Heart Rate” value (Rat Heart Rate [1]) was “+ (Heart rate decreased by 50 BPM)”.

For `CC(C)C(=O)OC[C@H]1OC(n2cnc3c(N[C@@H]4CCOC4)ncnc32)[C@H](OC(=O)C(C)C)[C@@H]1OC(=O)C(C)C` (stereo partly drawn) [Compound 6, (5-{6-[((3R)oxolan-3-yl)amino]purin-9-yl}(2R, 3R, 4R)-3,4-bis(2-methylpropanoyloxy)oxolan-2-yl)methyl 2-methylpropanoate], the “Effect on Heart Rate” value (Rat Heart Rate [1]) was “++ (Heart Rate decreased by 50-100 BPM)”.

For `O=C(Cc1ccc([N+](=O)[O-])cc1)OC[C@H]1OC(n2cnc3c(N[C@@H]4CCOC4)ncnc32)[C@H](OC(=O)Cc2ccc([N+](=O)[O-])cc2)[C@@H]1OC(=O)Cc1ccc([N+](=O)[O-])cc1` (stereo partly shown) [Compound 11], the “Effect on Heart Rate” value (Rat Heart Rate [1]) was “−”.

With `CCCC(=O)OC[C@H]1OC(n2cnc3c(N[C@@H]4CCOC4)ncnc32)[C@H](OC(=O)CCC)[C@@H]1OC(=O)CCC` (stereo partly drawn) [Compound 4, (5-{6-[((3R)oxolan-3-yl)amino]purin-9-yl}(2R, 3R, 4R)-3,4-dibutanoyloxyoxolan-2-yl)methyl butanoate] the “Effect on Heart Rate” value (Rat Heart Rate [1]) was “+ (Heart rate decreased by 50 BPM)”.

In the case of `CC(=O)OC[C@H]1OC(n2cnc3c(N[C@@H]4CCOC4)ncnc32)[C@H](O)[C@@H]1O` (stereo partly drawn) [Compound 34, (5-{6-[((3R)oxolan-3-yl)amino]purin-9-yl}(3S, 2R, 4R)-3,4-dihydroxyoxolan-2-yl)methyl acetate], the “Effect on Heart Rate” value (Rat Heart Rate [1]) was “−”.

In the case of `OC[C@H]1O[C@@H](n2cnc3c(N[C@@H]4CCOC4)ncnc32)[C@H](O)[C@@H]1O` [Compound 1], the “adenosine A1 agonist activity” value (adenosine A1) is listed as “potent, selective adenosine A1 agonist” and the “effect on heart rate of the sinus rhythm” value (Rat Heart Rate [2]; rat, IP, 0.025 mg) is listed as “lowers the heart rate”.

For `CC(=O)OC[C@H]1OC(n2cnc3c(N[C@@H]4CCOC4)ncnc32)[C@H](OC(=O)C(C)C)[C@@H]1OC(=O)C(C)C` (stereo partly drawn) [Compound 15, 2-{6-[((3R)oxolan-3-yl)amino]purin-9-yl}(3R, 4R, 5R)-5-(acetyloxymethyl)-4-(2-methylpropanoyloxy)oxolan-3-yl 2-methylpropanoate], the “Effect on Heart Rate” value (Rat Heart Rate [1]) was “+++ (Heart Rate decreased by 100-150 BPM)” and the “decrease in heart rate” value (Rat Heart Rate [2]; rats) was 100-150 beats per minute.
